Read-outs that look alike come from different tables or passages of the source.
Columns and labels:
[1] = cited from earlier work
[2] = Prediction of liver cell hypertrophy using SVM from post-translational modification data; parameters: species or system rat
[3] = SVM prediction of liver cell hypertrophy, training set, top-ranked 20 sets of post-translational modification data
[4] = known carcinogenicity of chemical, Tables 1 to 3
[5] = known carcinogenicity of chemical, Tables 8 to 11

| SMILES | Carcinogenicity ([1]; in vivo) | Finding of hepatocyte hypertrpy (liver cell; rat, in vivo) | pathology of liver cell hypertrophy in the liver (liver cell; rat, in vivo) | other results |
| --- | --- | --- | --- | --- |
| CCSCCC(N)C(=O)O (racemic) [D,L-ethionin] | + |  |  |  |
| CC(C)[C@@H]1CC[C@@H](C)C[C@H]1O (racemic) [DL-menthol] | − | + | pathology of liver cell hypertrophy was seen | Prediction result [2]: +1 CORRECT |
| Clc1ccc(Cl)cc1 [1,4-Dichlorobenzene] | + | + | pathology of liver cell hypertrophy was seen | Prediction result [2]: +1 CORRECT |
| C1COCCO1 [1,4-Dioxane] |  | − | no pathology of liver cell hypertrophy was seen | Prediction result [2]: −1 CORRECT |
| CC(O)CCl (stereo not shown) [1-Chloro-2-propanol] | − |  |  |  |
| O=[N+]([O-])c1cccc2ccccc12 [1-Nitronaphthalene] | − |  |  |  |
| Cc1ccc(N)cc1N [2,4-Diaminotoluene] | + | − | no pathology of liver cell hypertrophy was seen | Prediction result [2]: −1 CORRECT |
| Cc1cc(N)ccc1N.O=S(=O)(O)O [2,5-Toluenediamine sulfate] | − |  |  |  |
| Cc1c(N)cccc1N [2,6-Diaminotoluene] |  | − | no pathology of liver cell hypertrophy was seen | Prediction result [2, 3]: −1 CORRECT |
| Cl.ClCc1ccccn1 [2-(Chloromethyl)pyridine hydrochloride] |  | − | no pathology of liver cell hypertrophy was seen | Carcinogenicity [1, 4]: −; Carcinogenicity [1, 5]: −; Prediction result [2]: −1 CORRECT |
| Cn1c(N)nc2ncc(-c3ccccc3)cc21 [2-Amino-1-methyl-6-phenylimidazo[4,5-b]-pyridine] | + |  |  |  |
| Cc1cnc2ccc3c(nc(N)n3C)c2n1 [2-Amino-3,8-dimethylimidazo[4,5-f]-quinoxaline] | + |  |  |  |
| Nc1ccc(N)c(Cl)c1.O=S(=O)(O)O [2-Chloro-p-phenylenediamine sulfate] | − |  |  |  |
| CC(C)[N+](=O)[O-] [2-Nitropropane] |  | − | no pathology of liver cell hypertrophy was seen | Prediction result [2]: −1 CORRECT |
| Cc1ccc(N)cc1Cl [3-Chloro-p-toluidine] | − |  |  |  |
| Cc1ccc2cc3c(ccc4ccccc43)c3c2c1CC3 [3-Methylcholantrene] | + |  |  |  |
| CC(=O)Nc1ccc(C(=O)CCl)cc1 [4-(Chloroacetyl)acetanilide] | − |  |  |  |
| CN(C)c1ccc(N=Nc2ccccc2)cc1 [4-Dimethylaminoaxobenzene] | + |  |  |  |
| Nc1ccc([N+](=O)[O-])cc1N [4-Nitro-o-phenylenediamine] | − | − | no pathology of liver cell hypertrophy was seen | Prediction result [2]: −1 CORRECT |
| Nc1cc([N+](=O)[O-])ccc1C(=O)O [4-Nitroanthranylic acid] | − |  |  |  |
| Cc1c2ccccc2c(C)c2c1ccc1ccccc12 [7,12-Dimethylbenzanthracene] | + |  |  |  |
| Oc1cccc2cccnc12 [8-Hydrxyquinoline] | − | − | no pathology of liver cell hypertrophy was seen | Prediction result [2]: −1 CORRECT |
| CC(N)=O [Acetamide] | + |  |  |  |
| ClC1=C(Cl)C2(Cl)C3C4C=CC(C4)C3C1(Cl)C2(Cl)Cl (stereo not shown) [Aldrin] | + | − | no pathology of liver cell hypertrophy was seen | Prediction result [2]: −1 CORRECT |
| CC(=O)Oc1ccccc1C(=O)O [Aspirin] |  |  |  | Carcinogenicity [1, 4]: −; Carcinogenicity [1, 5]: − |

| SMILES | Carcinogenicity ([1]; in vivo) | Finding of hepatocyte hypertrpy (liver cell; rat, in vivo) | pathology of liver cell hypertrophy in the liver (liver cell; rat, in vivo) | other results |
| --- | --- | --- | --- | --- |
| c1ccc2cc3c(ccc4ccccc43)cc2c1 [Benz(a)anthracene] | + |  |  |  |
| O=C(c1ccccc1)C(O)c1ccccc1 (stereo not shown) [Benzoin] | − |  |  |  |
| COc1ccc(O)c(C(C)(C)C)c1 [Butylated hydroxyanisole] | + | − | no pathology of liver cell hypertrophy was seen | Prediction result [2]: −1 CORRECT |
| O=C1CCCCCN1 [Caprolactam] |  |  |  | Carcinogenicity [1, 4]: −; Carcinogenicity [1, 5]: − |
| O=C(O)C1C(C(=O)O)C2(Cl)C(Cl)=C(Cl)C1(Cl)C2(Cl)Cl (stereo not shown) [Chlorendic acid] | + |  |  |  |
| ClC(Cl)Cl [Chloroform] | + |  |  |  |
| CCOC(=O)C(C)(C)Oc1ccc(Cl)cc1 [Clofibrate] |  | + | pathology of liver cell hypertrophy was seen | Carcinogenicity [1, 4]: +; Carcinogenicity [1, 5]: + |
| CCCCC(CC)COC(=O)CCCCC(=O)OCC(CC)CCCC (stereo not shown) [Di(2-ethylhexyl)adipate] |  | − | no pathology of liver cell hypertrophy was seen | Prediction result [2]: 1 |
| CC/C(=C(/CC)c1ccc(O)cc1)c1ccc(O)cc1 [Diethylstilbestrol] |  |  |  | Carcinogenicity [1, 4]: +; Carcinogenicity [1, 5]: + |
| C#C[C@]1(O)CC[C@H]2[C@@H]3CCc4cc(O)ccc4[C@H]3CC[C@@]21C [Ethinylestradiol] |  | − | no pathology of liver cell hypertrophy was seen | Carcinogenicity [1, 4]: +; Carcinogenicity [1, 5]: + |
| O=CCCCC=O [Glutaraldehyde] |  |  |  | Carcinogenicity [1, 4]: −; Carcinogenicity [1, 5]: − |
| Clc1c(Cl)c(Cl)c(Cl)c(Cl)c1Cl [Hexachlorobenzene] |  | + |  |  |
| O=C1O[C@H]([C@@H](O)CO)C(O)=C1O [L-ascorbic acid] |  | − |  | Prediction result [2, 3]: −1 CORRECT |
| COC(N)=O [Methyl carbamate] |  |  |  | Prediction result [2, 3]: −1 CORRECT; pathology of liver cell hypertrophy in the liver (liver cell; after 28 days repeated administration): no pathology of liver cell hypertrophy was seen; Finding of hepatocyte hypertrpy (liver cell; rat liver after 28 days repeated administration): − |
| CCN(N=O)C(N)=O [N-ethy-N-nitrosourea] | + |  |  |  |
| CN(C)N=O [N-nitrsodimethylamine] | + |  |  |  |
| ClC(Cl)C(Cl)(Cl)Cl [Pentachloroethane] | + |  |  |  |
| CCC1(c2ccccc2)C(=O)NC(=O)NC1=O [Phenobarbital] |  | + | pathology of liver cell hypertrophy was seen |  |
| O=C1NC(=O)C(c2ccccc2)(c2ccccc2)N1 [Phenytoin sodium] |  |  |  | Carcinogenicity [1, 4]: +; Carcinogenicity [1, 5]: + |
| NC(=O)c1ccccc1C(N)=O [Phthalamide] |  |  |  | Carcinogenicity [1, 4]: −; Carcinogenicity [1, 5]: − |
| ClC(Cl)=C(Cl)Cl [Tetrachloroethylene] | + |  |  |  |
| CC(=N)S [Thioacetamide] | + |  |  |  |
| O=C(O)C(Cl)(Cl)Cl [Trichloroacetic acid] | + |  |  |  |
| CCOC(N)=O [Urethane] |  |  |  | Carcinogenicity [1, 4]: +; Carcinogenicity [1, 5]: + |
| Cl.Cl.Nc1ccc(N)cc1 [p-Phenylenediamine dihydrochloride] | − |  |  |  |

Source: patent US20090134028A1, “Method of Estimating Effect of Test Chemical on Living Organisms” (Chemicals Evaluation and Research Institute, priority 2005, published 2009)
